{
  "source": "patent US6841657B2",
  "about": "“Inhibitors of HIV membrane fusion” (priority 1998, dated 2005)",
  "key": {"[1]": {"system": "hydrophobic pocket of IQN17 (gp41)", "assay": "1H NMR assay of binding to the IQN17 hydrophobic pocket", "design": "species or system HIV-1", "conditions": "1:1 complex with IQN17, 25° C., 100 mM NaCl, 50 mM sodium phosphate pH 7.5, D2O", "source_text": "NMR experiments were used to assay the binding of each D-peptide to IQN17. The single tryptophan residue of IQN17 (denoted Trp-571) provides an excellent probe of specific binding to the hydrophobic pocket of gp41. […] To test a compound for binding to the gp41 pocket, two one-dimensional ^1H NMR measurements were made on samples in deuterated buffers. First, a reference (control) spectrum of IQN17 was taken, identifying the Trp571 chemical shifts in the unbound form. A second spectrum was acquired on a sample containing both IQN17 and the compound in question. An optional third spectrum of the D-peptide (or other small molecule, or mix of molecules) was also taken. ^1H NMR experiments were performed on a Bruker AMX 500 spectrometer. Data was processed in Felix 98.0 (MSI) on Silicon Graphics computers, and all spectra were referenced to DSS. All experiments were performed at 25° C. in 100 mM NaCl, 50 mM sodium phosphate (pH 7.5). All buffers used were >99.7% D2O, to remove overlapping resonances from exchangeable backbone and side chain protons. Solute concentrations ranged from 0.3-1.0 mM for individual peptides, 0.8-1.0 mM for 1:1 commplexes of IQN17 with each D-peptide.\nSimple binding of two or more components is expected to result both in broader peaks (due to the increased size of the complex) and in changes in chemical shifts (due to the different chemical environments experienced by nuclei in free and bound forms). Specific binding to the hydrophobic pocket is indicated by a change in the Trp-571 chemical shifts, as well as by a broadening of peaks. Binding can also be indicated by similar changes in the chemical shifts and peak widths of the molecule (peptides and small organic molecules, for example) assayed. […] All IQN17/D-peptide complexes studied gave similar results, though varying in the degree of chemical shift dispersion (FIG. 9B). Thus, binding was indicated in all cases.\nTo confirm that the strongly upfield-shifted peaks all correspond to a single sidechain (almost certainly Trp-571), two-dimensional NMR (TOCSY) experiments were performed on each of the IQN17/D-peptide complexes. As expected, the TOCSY experiments indicate that in each complex, the strongly upfield-shifted resonances all belong to the same aromatic side chain, identified as a group of four scalar-coupled protons. For several of the complexes studied, NOESY experiments also indicate contact between this sidechain and other (unassigned) aromatic groups, as expected from the IQN17/D10pep1 structure. Not all of the potential NOE crosspeaks could be resolved, due to intense spectral overlap in the 6.8-7.6 ppm region. 2D NOESY and TOCSY experiments as described in J. Cavanaugh, W. J. Fairbrother, A. G. Palmer, N. J. Skelton, Protein NMR Spectroscopy: Principles and Practice (1996) were performed on samples of IQN17 and of each complex, with mixing times ranging between 30-90 ms (NOESY) and 30-70 ms (TOCSY). Spectral widths of 11,111 Hz and 5555 Hz were used in the acquisition (t2) and indirect (t1) dimensions, respectively. TOCSY experiments employed the DIPSI-2rc mixing sequence (J. Cavanaugh, M. Rance, J. Magn. Reson. Serv. A., 105:328 (1993))."}, "[2]": {"system": "recombinant luciferase-expressing HIV-1", "assay_type": "cell-based", "conditions": "infectivity assay", "protocol": "The potency of C34 peptides in inhibiting viral infection and the HIV-1 infection inhibitory activity of the D-peptides were assayed using recombinant luciferase-expressing HIV-1 (Chen, B. K. et al., J. Virol., 68:654 (1994); Malashkevich, V. N., et al., Proc. Natl. Acad. Sci., USA, 95:9134 (1998)).\nThe apparent melting temperatures (Tm) were estimated from the thermal dependence of the CD signal at 222 nm. Inhibition of viral entry was measured in a cell-culture infection assay using recombinant luciferase-expressing HIV-1. Inhibition of cell-cell fusion was measured in a syncytium assay. The means and standard errors are from triplicate trials."}, "[3]": {"system": "syncytia formation between Chinese hamster ovary cell expressing HXB2 envelope and HeLa-CD4-LTR-Beta-gal cells", "conditions": "two additional N-terminal lysines vs parent D-peptide", "protocol": "In each instance, a blocking group (e.g., an acetyl group) was present at the N terminus and a CONH2 (amide) was present at the C-terminus.\nInhibition of cell/cell fusion (i.e., syncytia formation) was assayed by co-culturing Chinese hamster ovary cell expressing HXB2 envelope (K. Kozarsky, et al., J. Acquir. Immune. Defic. Syndr., 2:163 (1989) and the HeLa-CD4-LTR-Beta-gal cells (M. Emerman, NIH AIDS Reagent program) in the presence of varying concentration of peptide. When mixed, these cells form syncytia, or multi-nucleated cells, which express β-galactosidase. Approximately twenty hours after co-culturing the cells, the monolayers were stained with 5-bromo-4-chloro-3-indolyl-β-D-galactoside to visualize the syncytia. The syncytia are visualized with a microscope and counted manually (a syncytia is scored as a fused cell containing three or more nuclei). The IC50 was calculated from fitting the data to a Langmuir equation [y=k/(1+[peptide]/IC50)+x], where y=number of syncytia and k and x are scaling constants."}, "HIV-1": {"system": "HIV-1", "conditions": "Phase I clinical trial; cited from earlier work"}},
  "note": "Positions of bridges follow the written chain, without caps; N, C: chain ends. Non-standard residues stand in square brackets, D forms with d.",
  "data": [
    {"substance": "Ac-GACDLKAKEWFWLCAA-CONH2 (Ac-G[dA][dC][dD][dL][dK][dA][dK][dE][dW][dF][dW][dL][dC][dA][dA]-NH2; disulfide 3-14 (inferred)) [Peptide D10pep4]", "values": [
      {"measurement": "binding to the hydrophobic pocket of IQN17", "setting": "[1]", "value": "contact the pocket with very similar binding interfaces"}
    ]},
    {"substance": "Ac-GACEARHREWAWLCAA-CONH2 (Ac-G[dA][dC][dE][dA][dR][dH][dR][dE][dW][dA][dW][dL][dC][dA][dA]-NH2; disulfide 3-14 (inferred)) [Peptide D10pep1]", "values": [
      {"measurement": "binding to the hydrophobic pocket of IQN17", "setting": "[1]", "value": "contact the pocket with very similar binding interfaces"},
      {"measurement": "inhibition of infection of cells", "setting": "[2]", "value": "inhibit infection of cells"}
    ]},
    {"substance": "Ac-GACSRSQPEWEWLCAA-CONH2 (Ac-G[dA][dC][dS][dR][dS][dQ][dP][dE][dW][dE][dW][dL][dC][dA][dA]-NH2; disulfide 3-14 (inferred)) [Peptide D10pep6]", "values": [
      {"measurement": "binding to the hydrophobic pocket of IQN17", "setting": "[1]", "value": "contact the pocket with very similar binding interfaces"}
    ]},
    {"substance": "Ac-KKGACEARHREWAWLCAA-CONH2 (Ac-KKG[dA][dC][dE][dA][dR][dH][dR][dE][dW][dA][dW][dL][dC][dA][dA]-NH2; disulfide 5-16 (inferred); not fully specified (residues 1, 2); printed as Ac-KKGACEARHREWAWLCAA-CONH2) [Peptide D10pep1a]", "values": [
      {"measurement": "binding to the hydrophobic pocket of IQN17", "setting": "[1]", "value": "broader peaks and dramatically different chemical shifts"},
      {"measurement": "IC50 for inhibition of syncytia formation relative to parent peptide without the added lysines", "setting": "[3]", "value": "approximately 2 fold"}
    ]},
    {"substance": "Ac-KKGACGLGQEEWFWLCAA-CONH2 (Ac-KKG[dA][dC]G[dL]G[dQ][dE][dE][dW][dF][dW][dL][dC][dA][dA]-NH2; disulfide 5-16 (inferred); not fully specified (residues 1, 2); printed as Ac-KKGACGLGQEEWFWLCAA-CONH2) [Peptide D10pep3]", "values": [
      {"measurement": "binding to the hydrophobic pocket of IQN17", "setting": "[1]", "value": "contact the pocket with very similar binding interfaces"}
    ]},
    {"substance": "Ac-KKGACMRGEWEWSWLCAA-CONH2 (Ac-KKG[dA][dC][dM][dR]G[dE][dW][dE][dW][dS][dW][dL][dC][dA][dA]-NH2; disulfide 5-16 (inferred); not fully specified (residues 1, 2); printed as Ac-KKGACMRGEWEWSWLCAA-CONH2) [Peptide D10pep10]", "values": [
      {"measurement": "binding to the hydrophobic pocket of IQN17", "setting": "[1]", "value": "contact the pocket with very similar binding interfaces"}
    ]},
    {"substance": "Ac-KKGACPPLNKEWAWLCAA-CONH2 (Ac-KKG[dA][dC][dP][dP][dL][dN][dK][dE][dW][dA][dW][dL][dC][dA][dA]-NH2; disulfide 5-16 (inferred); not fully specified (residues 1, 2); printed as Ac-KKGACPPLNKEWAWLCAA-CONH2) [Peptide D10pep12]", "values": [
      {"measurement": "binding to the hydrophobic pocket of IQN17", "setting": "[1]", "value": "contact the pocket with very similar binding interfaces"}
    ]},
    {"substance": "enfuvirtide", "values": [
      {"measurement": "antiviral activity in vivo", "setting": "HIV-1", "value": "reduced viral loads"}
    ]}
  ]
}
